Test results from US5532372A, “Imide derivatives, and their production and use” (Sumitomo Pharmaceuticals Company, Ltd., priority 1990, dated 1996).
Read-outs that look alike come from different tables or passages of the source.

Assays:
in vivo = details: mouse, po
[1] = Catalepsy inducing activity (extrapyramidal side-effect); design: species or system male mice; details: mouse, in vivo; oral, one hour later, mice; Table 5
Description: A designated amount of the test compounds is orally administered to male mice, and one hour later a pair of forepaws are forcedly hanged on an iron pipe (diameter, 2.5 mm) horizontally set at a height of 5 cm. At least one cataleptic state of more than 30 second per three trials is regarded as positive.

mice = experiment: Anti-climbing activity (in vivo), climbing behavior induced by apomorphine in mice; design: species or system mice (ddY strain male); details: Mus musculus, 1 h, read-out: ED50 (50% suppressive dose) of climbing behavior
Description: (ii) Anti-climbing activity (in vivo)
This activity is examined through the anti-climbing behavior test, i.e. the test for suppressing the climbing behavior induced by apomorphine in mice.
A designed amount of the test compound is orally administered to several groups of ddY strain male mice (bodyweight, 20 to 25 g; one group, 5 mice), and each of the animals is placed in an individual column cage of 12 cm in diameter and 14 cm in height having metal poles (each pole, 2 mm in diameter) vertically installed and arranged along the periphery with intervals of 1 cm. After 60 minutes, apomorphine (1.0 mg/kg) is subcutaneously injected, and the behavior is observed during 10 to 20 minutes.
0 All the paws are on the floor
1 only forepaws seize the pole of the cage
2 All the paws seize the pole of the cage;
climbing behavior observed discontinuously
3 Continuous climbing behavior observed

dopamine D2 receptor = target: T1, dopamine D2 receptor (Rattus norvegicus, UniProt P61169); experiment: Dopamine D2 receptor binding assay (in vitro), [3H] raclopride; details: at the concentration of 0.01 μM; Table 3; read-out: Antipsychotic activity (% inhibition), inhibition of [3H] raclopride binding to D2 receptors
T1 construct: from tissue; host or cells: rat corpus striatum, membrane fractions

[2] = oral, 60 minutes before apomorphine (1.0 mg/kg s.c.), mice, Table 4

T1 sequence (P61169 whole entry): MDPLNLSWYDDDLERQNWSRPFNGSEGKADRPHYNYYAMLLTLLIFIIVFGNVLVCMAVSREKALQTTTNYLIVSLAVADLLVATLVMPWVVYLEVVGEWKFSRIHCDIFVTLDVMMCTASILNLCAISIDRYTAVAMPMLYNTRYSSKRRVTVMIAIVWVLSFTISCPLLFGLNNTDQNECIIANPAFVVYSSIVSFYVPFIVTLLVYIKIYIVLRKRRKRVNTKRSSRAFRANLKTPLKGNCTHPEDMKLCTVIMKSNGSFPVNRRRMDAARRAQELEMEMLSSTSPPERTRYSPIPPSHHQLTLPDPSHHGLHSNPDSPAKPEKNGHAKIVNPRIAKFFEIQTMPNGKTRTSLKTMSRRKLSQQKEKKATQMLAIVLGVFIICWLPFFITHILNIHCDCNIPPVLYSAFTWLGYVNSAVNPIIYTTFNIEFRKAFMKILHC

SMILES | ED50 at 1 h (in vivo) | ED50 at 1 h [1] | ED50 (mice; [2]) | inhibition at 0.01 µM (dopamine D2 receptor) | ED50 (mice; po)
O=C1[C@@H]2[C@H]3CC[C@H](C3)[C@@H]2C(=O)N1C[C@@H]1CCCC[C@H]1CN1CCN(c2nsc3ccccc23)CC1 (relative stereo) [Compound No. 101] | > 1000 mg/kg | 747 mg/kg | 10.3 mg/kg |  | 
O=C1[C@H]2CCCC[C@H]2C(=O)N1C[C@@H]1C[C@H]1CN1CCN(c2nsc3ccccc23)CC1 (relative stereo) [Compound No. 107] |  |  | 26.5 mg/kg | 71% | 
O=C(c1ccc(F)cc1)C1CCN(C[C@@H]2C[C@H]2CN2C(=O)[C@H]3CCCC[C@H]3C2=O)CC1 (relative stereo) [compound 161] |  |  |  | 24% | 
O=C1[C@@H]2[C@H]3CC[C@H](C3)[C@@H]2C(=O)N1C[C@@H]1C[C@H]1CN1CCN(c2ncccn2)CC1 (relative stereo) [compound 163] |  |  |  | 11% | 
CN(C)CCCN1c2ccccc2Sc2ccc(Cl)cc21 [Chlorpromazine, reference compound] |  | 18 mg/kg |  |  | 4.2 mg/kg
O=C1[C@@H]2[C@H]3CC[C@H](C3)[C@@H]2C(=O)N1C1CCCC(CN2CCN(c3nsc4ccccc34)CC2)C1 (stereo partly shown) [Compound No. 106] |  |  |  | 90% | 
O=C(CCCN1CCC(O)(c2ccc(Cl)cc2)CC1)c1ccc(F)cc1 [Haloperidol, reference compound] | 4.1 mg/kg | 3.1 mg/kg | 0.67 mg/kg |  | 
